Data from patent publication US9591855B2, “Diindol-3-ylmethanes as potent non-toxic antifouling compounds” (Hong Kong University of Science and Technology, priority 2014, dated 2017).
Like-named read-outs stand apart in the source and are kept apart here.

Columns and labels:
[1] = Larval settlement bioassay, bryozoan larvae; format: in vivo, Bugula neritina
Protocol: (§1) Adult colonies of B. neritina were collected from the floating rafts at a fish farm in Yung SHU O, Hong Kong (22° 24′ N., 114° 21′ E.) and maintained in flow-through sweater for <7 days before use. The larvae were released under certain conditions described in Maki et al. (1989). Under the inducement of a bright artificial light for 20-30 minutes, the adult B. neritina placed in glass tank filled with 0.45 μm filtered seawater released their larvae, which were quickly able to attach and metamorphose. A good number of actively swimming larvae were obtained and immediately used for the anti-larval bioassay.
(§2) There were three replicate wells per solution.

[2] = tested on: Bugula neritina larvae; assay: Larval settlement bioassay, bryozoan larvae; format: in vivo; details: Bugula neritina, 48 h, read-out: EC50 (concentration in which 50% of larval population was prevented from settling)
Protocol: as §1, §2

[3] = tested on: Balanus amphitrite cypris larvae; details: for antifouling activity against B. amphitrite larval settlement (in words): in vivo; for EC50: read-out: EC50 (concentration in which 50% of larval population was inhibited to settle), 28° C., mean ± SD (n = 3); for EC50 / LC50: Balanus amphitrite cypris larvae, 48 h; for antifouling activity in comparison with the butenolide: compared with butenolide; for LC50: read-out: LC50 (concentration in which 50% of the test larvae population was killed)
Protocol: (§3) Newly transformed cyprids were collected for the experiment.
(§4) The experiment for evaluating inhibitory effect of the related compounds on B. amphitrite and B. neritina larvae was conducted in 24-well polystyrene plates (Nunc, Naperville, Ill., Calif., USA). A stock solution of 50 mg ml^−1 of each compound was prepared in DMSO, diluted 1000 times with fresh seawater (FSW) to 50 μg ml^−1, and further diluted by a serial 2-fold dilution to obtain test solutions of seven concentrations ranging from 25 to 0.39 μg mL^−1. Sixteen to twenty larvae were then added to each well with one milliliter of the test solution. There were three replicate wells per solution. […] The 24-well plates were maintained in the dark for 48 h at 28° C. The number of settled larvae (attached and metamorphosed), swimming and dead larvae were counted under a dissecting microscope at 48 hr. The number of the settled larvae was expressed as a percentage of the total number of larvae per well. The mortality rate was determined as the percentage of the dead or missing larvae over the total number of larvae. Each bioassay experiment had three biological replicates and was repeated three times using three different batches of larvae.
(§5) The data were analyzed by one-way analysis of variance (ANOVA) to detect significant differences in larval settlement with regard to the concentration used (p<0.05).
(§6) In the anti-larval settlement assay, the EC50 for percentage of attachment and LC50 for larval mortality were calculated by using the software Probit. Differences in all tests between treatments and controls were determined by one-way ANOVA followed by Tukey's test.

[4] = in vivo; details: Balanus (=Amphibalanus) amphitrite (barnacle, cypris larvae)
Protocol: as §3, §4, §5, §6

[5] = tested on: cyprids of Amphibalanus amphitrite; assay: Recovery (reversibility) bioassay on cyprids; format: in vivo
Protocol: Cyprids were firstly exposed to the concentrations of DIM (1) (25.39 μM) and DIM-Ph-4-OH (8) (73.93 μM) that inhibited 100% of cyprid settlement of Amphibalanus amphitrite. After 24 hr of exposure, the cyprids were transferred to fresh seawater (FSW) and kept in incubator for 48 hr. In the control group, cyprids were kept in FSW without biocides during the course of the experiment. Values presented here were mean±SD (n=3) of the settled and unsettled (swimming) living larvae.
Reversibility tests—Cyprids were exposed and in the laboratory, recovery bioassay was designed and conducted to determine whether antifouling compounds 3,3′-diindolylmethane (DIM) and 4-hydroxyphenyl-3,3′-diindolylmethane (DIM-Ph-4-OH) had any detrimental effect on larvae. […]

[6] = tested on: primary mouse neurons; assay: Cytotoxicity to primary mouse neurons; format: cell-based
[7] = Preliminary hydrolysis experiment in natural seawater; format: physicochemical; details: after 4 d incubation
[8] = tested on: Balanus amphitrite cypris larvae; details: positive control concentration, Li et al., 2013; cited from earlier work
[9] = tested on: Bugula neritina larvae; details: positive control concentration, Li et al., 2013; cited from earlier work
[10] = tested on: marine fouling organisms (biofoulers); assay: Field test of painted PVC panels at Sai Kung Pier; format: in vivo
Text: Photographs show the surface condition of tested panels after submersion in sea water for 5 months. (A) Test panel No. 1, negative control panel coated with the basal paint; […] Asterisks above the bars indicate significant differences from the negative control in Tukey's test (p<0.05, One-way ANOVA). […] (2006) and Xu et al. (2010) with minor modifications. Briefly, the plates were coated with the mixed paints containing the basal ingredients as follows: 0.4, 0.8 and 1.2 g of DIM or Sea-Nine 211TM, 2.5 g of polyacrylic resin, 1.0 g of gum resin, 1.0 g of calcium carbonate, 2.0 g of titanium oxide, 0.2 g of bentonite, and 10.0 ml of xylene. After stirring the paint for 4-5 hr, it was immediately painted onto the sandblasted PVC panels. The painted plates were allowed to dry in dark. […] Calculation of Area Covered by Biofoulers-The condition of the painted surface of each panel was monitored and photographed weekly over a period of 5 months. All the images were analyzed with the ImageJ program (available as a public domain Java image processing software provided by NIH Image). […] Subsequently, the total area covered by biofoulers was calculated and was then divided by the total area of the panel surface to give rise to the percent coverage of biofoulers on each panel.

[11] = Bugula neritina (bryozoan, in vivo, other: immersion of larvae in test solution in seawater), Bugula neritina larvae, 48 h, read-out: LC50 (concentration in which 50% of the test larvae population was killed)
[12] = other: immersion of larvae in test solution in seawater
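Wherever antifouling activity against B. amphitrite larval settlement (in words) is given: larvae held in 24-well plates with compound in seawater, dark, 48 h, settled larvae (attached plus metamorphosed) and dead or missing larvae counted microscopically as percent of total per well.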
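Wherever antifouling activity in comparison with the butenolide is given: larvae held in 24-well plates with compound in seawater, dark, 48 h, settled larvae (attached plus metamorphosed) and dead or missing larvae counted microscopically as percent of total per well.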
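Wherever inhibition of cyprid settlement is given: larvae held in 24-well plates with compound in seawater, dark, 48 h, settled larvae (attached plus metamorphosed) and dead or missing larvae counted microscopically as percent of total per well.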

Q: For `CC(=O)Oc1ccc(C(c2c[nH]c3ccccc23)c2c[nH]c3ccccc23)cc1` [Compound 9, 4-[di(1H-indol-3-yl)methyl]phenyl acetate], which LC50 at 48 h [1, 11] is on record?
A: The LC50 at 48 h was over 132 µM.

Q: What about the EC50 [2] of the same compound?
A: Its EC50 is 4500 ± 420 nM.

Q: What about the “antifouling activity against B. amphitrite larval settlement (in words)” value (from here on “antifouling activity … (in words)”) [3] of the same compound?
A: Its value is “not as high as that of DIM-Ph-4-OH (8)”.

Q: And the EC50 [3]?
A: The EC50 was 4.34 ± 0.32 µM.

Q: What about the LC50 at 48 h [4, 12] of the same compound?
A: The LC50 at 48 h was over 132 µM.

Q: For `Oc1ccc(C(c2c[nH]c3ccccc23)c2c[nH]c3ccccc23)cc1` [Compound 8, 4-(di(1H-indol-3-yl)methyl) phenol], which LC50 at 48 h [1, 11] is on record?
A: Its LC50 at 48 h is over 148 µM.

Q: What about the EC50 [2] of the same compound?
A: The EC50 was 1250 nM.

Q: What about the “treated cyprids that retained their ability of normal attachment and metamorphosis” value ([5]; Amphibalanus amphitrite, in vivo, 73.93 μM) of the same compound?
A: The value was 95%.

Q: What about the “cytotoxicity to primary mouse neurons” value [6] of the same compound?
A: Its value is “non-cytotoxic”.

Q: What about the “inhibition of cyprid settlement” value ([3]; 73.93 μM) of the same compound?
A: The value was 100%.

Q: What about the “antifouling activity in comparison with the butenolide” value [3] of the same compound?
A: Its value is “comparable antifouling activity”.

Q: What about the “antifouling activity … (in words)” value [3] of the same compound?
A: The value was “best antifoulant”.

Q: What about the EC50 [3] of the same compound?
A: Its EC50 is 1.86 ± 0.24 µM.

Q: What about the LC50 at 48 h [4, 12] of the same compound?
A: Its LC50 at 48 h is over 148 µM.

Q: With `CCCCCCCCn1sc(Cl)c(Cl)c1=O` [Sea-Nine 211™, 4,5-dichloro-2-N-octyl-3(2H)-isothiazolone] as the compound, how does the “degradation in natural seawater” value [7] read?
A: The value was “no obvious degradation”.

Q: What about the “EC50 value for B. amphitrite” value [8] of the same compound?
A: The value was 1.90 µg/mL.

Q: And the “EC50 value for B. neritina” value [9]?
A: The value was 2.50 µg/mL.

Q: What does the source list for `c1ccc(C(c2c[nH]c3ccccc23)c2c[nH]c3ccccc23)cc1` [Compound 7, 3,3′-(phenylmethylene) bis-1H-indole]?
A: antifouling activity in comparison with the butenolide [3]: comparable antifouling activity; antifouling activity against B. amphitrite larval settlement (in words) [3]: weaker anti-larval settlement activity than DIM-Ph-4-OH (8); EC50 [3]: 3.57 ± 0.12 µM; LC50 at 48 h [4, 12]: > 155 µM

Q: Which “antifouling activity … (in words)” value [3] does the source give for `OCC(O)C(c1c[nH]c2ccccc12)c1c[nH]c2ccccc12` (stereo not shown) [Compound 3, 3,3′-di-1H-indol-3-yl-1,2-propandiol] here?
A: The value was “least active compound”.

Q: What about the EC50 [3] of the same compound?
A: The EC50 was 18.6 ± 0.79 µM.

Q: What about the LC50 [3] of the same compound?
A: The LC50 was over 327 µM.

Q: Which EC50 [3] does the source give for `c1ccc2c(C(c3c[nH]c4ccccc34)c3c[nH]c4ccccc34)c[nH]c2c1` [Compound 4, tri(1H-indol-3-yl)methane] here?
A: The EC50 was 5.81 ± 0.53 µM.

Q: And the LC50 at 48 h [4, 12]?
A: Its LC50 at 48 h is over 138 µM.

Q: What does the source list for `CC(c1c[nH]c2ccccc12)c1c[nH]c2ccccc12` [Compound 2, vibrindole A]?
A: EC50 [3]: 5.42 ± 0.19 µM; LC50 [3]: > 192 µM

Q: For `c1ccc2[nH]ccc2c1` [Indole, indole, reference compound], which “antifouling activity … (in words)” value [3] is on record?
A: The value was “weak antifouling activity”.

Q: And the EC50 [3]?
A: The EC50 was 17.5 ± 0.6 µM.

Q: And the EC50 ([3]; listed as indole)?
A: The EC50 was 17.5 µM.

Q: What about the LC50 at 48 h [4] of the same compound?
A: Its LC50 at 48 h is 85.4 µM.

Q: For arsindoline A [Compound 6], which EC50 [3] is on record?
A: The EC50 was 4.64 ± 0.59 µM.

Q: Which results are given for `O=C(c1c[nH]c2ccccc12)C(c1c[nH]c2ccccc12)c1c[nH]c2ccccc12` [Compound 5, 1,2,2-tri(1H-indol-3-yl) ethanone]?
A: EC50 [3]: 4.19 ± 0.15 µM; LC50 at 48 h [4, 12]: > 128 µM

Q: For `c1ccc2c(Cc3c[nH]c4ccccc34)c[nH]c2c1` [Compound 1, di(1H-indol-3-yl)methane], which LC50 at 48 h ([1]; Bugula neritina (bryozoan, larvae), in vivo) is on record?
A: The LC50 at 48 h was over 203 µM.

Q: And the EC50 [2]?
A: Its EC50 is 2540 nM.

Q: What about the “treated cyprids that retained their ability of normal attachment and metamorphosis” value ([5]; 24 hr exposure at 25.39 μM (50 μg mL^−1), then 48 hr in FSW) of the same compound?
A: The value was 93%.

Q: And the “biofouling on surface of treated PVC panels” value ([10]; 10% and 15% (w/w) in paint, submerged in seawater 5 months)?
A: Its value is “few marine organisms observed”.

Q: And the “period over which settlement of marine fouling organisms was deterred in field test” value ([10]; field test)?
A: The value was at least 3 months.

Q: And the “degradation in natural seawater” value [7]?
A: The value was about 90%.

Q: What about the “cytotoxicity to primary mouse neurons” value [6] of the same compound?
A: Its value is “non-cytotoxic”.

Q: What about the “inhibition of cyprid settlement” value ([3]; 25.39 μM) of the same compound?
A: Its value is 100%.

Q: What about the “antifouling activity in comparison with the butenolide” value [3] of the same compound?
A: Its value is “comparable antifouling activity”.

Q: What about the EC50 [3] of the same compound?
A: Its EC50 is 3.27 ± 0.53 µM.

Q: And the LC50 at 48 h [4]?
A: The LC50 at 48 h was over 203 µM.
